Measurements from ChEMBL document CHEMBL3351580, “Pyrano-isochromanones as IL-6 inhibitors: synthesis, in vitro and in vivo antiarthritic activity” (J Med Chem, 2014).

Assays:
THP-1 [1] = test: Inhibition of LPS-induced IL6 production in human THP1 cells after 24 hrs; assay type: functional, cell-based; settings: THP-1, 24 h
[2] = Solubility in water; assay type: physicochemical
B-cell = test: Inhibition of LPS-induced cell proliferation of B cells (unknown origin) at 10 uM after 72 hrs by MTT assay; assay type: functional
[3] = Inhibition of concanavalin A-induced cell proliferation of T cells (unknown origin) at 10 uM after 72 hrs by MTT assay; assay type: functional
THP-1 [4] = test: Inhibition of LPS-induced TNFalpha production in human THP1 cells after 24 hrs; assay type: functional, cell-based; settings: THP-1, 24 h

COc1c(O)c(CN2CCOCC2)c2c(c1O)[C@@H]1O[C@H](CO)[C@@H](O)[C@H](O)[C@H]1OC2=O
IC50 (THP-1 [1]): 1860 nM | solubility [2]: > 1500 µg/mL | inhibition at 10 µM (B-cell): 31.6% | inhibition at 10 µM [3]: 37.5% | IC50 (THP-1 [4]): 16 µM

COc1c(O)c(CN2CCC[C@H]2CO)c2c(c1O)[C@@H]1O[C@H](CO)[C@@H](O)[C@H](O)[C@H]1OC2=O
IC50 (THP-1 [1]): 745 nM | solubility [2]: > 1500 µg/mL | inhibition at 10 µM (B-cell): 31.6% | inhibition at 10 µM [3]: 37.5% | IC50 (THP-1 [4]): 13.5 µM

COc1c(O)c(CN(C)C)c2c(c1O)[C@@H]1O[C@H](CO)[C@@H](O)[C@H](O)[C@H]1OC2=O
IC50 (THP-1 [1]): 211 nM | solubility [2]: > 1500 µg/mL | inhibition at 10 µM (B-cell): 44% | inhibition at 10 µM [3]: 21.1% | IC50 (THP-1 [4]): > 30 µM

COc1c(O)c(CN(C)CC(=O)O)c2c(c1O)[C@@H]1O[C@H](CO)[C@@H](O)[C@H](O)[C@H]1OC2=O
IC50 (THP-1 [1]): 1630 nM | solubility [2]: > 1500 µg/mL | inhibition at 10 µM (B-cell): 17% | inhibition at 10 µM [3]: 4% | IC50 (THP-1 [4]): > 30 µM

COc1c(O)c(CN2CCC[C@H]2C(=O)O)c2c(c1O)[C@@H]1O[C@H](CO)[C@@H](O)[C@H](O)[C@H]1OC2=O
IC50 (THP-1 [1]): 918 nM | solubility [2]: > 1500 µg/mL | inhibition at 10 µM (B-cell): 28.2% | inhibition at 10 µM [3]: 17.3% | IC50 (THP-1 [4]): 25.5 µM

COc1c(O)c(CN2CCC(c3ccccc3)CC2)c2c(c1O)[C@@H]1O[C@H](CO)[C@@H](O)[C@H](O)[C@H]1OC2=O
IC50 (THP-1 [1]): 351 nM | solubility [2]: > 1500 µg/mL | inhibition at 10 µM (B-cell): 28.2% | inhibition at 10 µM [3]: 37.2% | IC50 (THP-1 [4]): > 30 µM

COc1c(O)c(CN2C[C@@H](O)CC2C(=O)O)c2c(c1O)[C@@H]1O[C@H](CO)[C@@H](O)[C@H](O)[C@H]1OC2=O (stereo not given in full)
IC50 (THP-1 [1]): 322 nM | solubility [2]: > 1500 µg/mL | inhibition at 10 µM (B-cell): 11.4% | inhibition at 10 µM [3]: 6.5% | IC50 (THP-1 [4]): > 30 µM
